Assay [1] can be described thus: Inhibition of HCV genotype 1a wild-type NS5B RNA dependent RNA polymerase transfected in human HuH7 Lunet replicon cells assessed as reduction in viral replication after 3 days by steady-glo luciferase reporter gene assay. In general terms: In antiviral work, replicon cells carry a viral genome segment that copies itself.
Assay [2] in a line: Inhibition of HCV genotype 1b wild-type NS5B RNA dependent RNA polymerase infected in human HuH7 Lunet replicon cells assessed as reduction in viral replication after 48 hrs by steady-glo luciferase reporter gene assay.
Assay [3] in a line: Inhibition of HCV genotype 1b NS5B RNA dependent RNA polymerase C316N mutant infected in human HuH7 Lunet replicon cells assessed as reduction in viral replication after 48 hrs by steady-glo luciferase reporter gene assay.
The nature of assay [4]: Inhibition of HCV genotype 1a NS5B RNA dependent RNA polymerase C316Y mutant transfected in human HuH7 Lunet replicon cells assessed as reduction in viral replication after 3 days by steady-glo luciferase reporter gene assay.

For `CNC(=O)c1c(-c2ccc(F)cc2)oc2cc(N(c3cc(Cl)c4c(c3)COB4O)S(C)(=O)=O)c(C3CC3)cc12`, the EC50 (as a rule, the midpoint of the concentration-response curve) is 1.3 nM in assay [1], 2.5 nM in assay [2], 2.5 nM in assay [3] and 32 nM in assay [4].

In the case of `CNC(=O)c1c(-c2ccc(F)cc2)oc2cc(N3C(=O)OC[C@@H]3c3ccc(B(O)O)c(F)c3)c(C3CC3)cc12`, the EC50 in assay [1] is 2.6 nM; in assay [2], 2 nM; in assay [3], 5 nM; in assay [4] it was 24 nM.

In the case of `CNC(=O)c1c(-c2ccc(F)cc2)oc2cc(N(c3ccc(B(O)O)cc3)S(C)(=O)=O)c(C3CC3)cc12`, the concentration giving a half-maximal response (EC50) in assay [1] was determined as 0.9 nM; in assay [2] it was 2.5 nM; in assay [3] it was 6.3 nM; in assay [4], 290 nM.

With `CNC(=O)c1c(-c2ccc(F)cc2)oc2cc(N(c3ccc(B(O)O)c(C(F)(F)F)c3)S(C)(=O)=O)c(C3CC3)cc12`, the EC50 in assay [1] amounted to 1.1 nM; in assay [2], 4 nM; in assay [3], 7.9 nM; in assay [4], 17 nM.

As for `CNC(=O)c1c(-c2ccc(F)cc2)oc2cc(N3C(=O)OCC3c3ccc(B(O)O)cc3)c(C3CC3)cc12` (centres undefined), the EC50 in assay [1] was 8.3 nM; in assay [2], 16 nM; in assay [3], 200 nM; in assay [4], 2000 nM.

In the case of `CNC(=O)c1c(-c2ccc(F)cc2)oc2cc(-c3ncnn3-c3ccc(B(O)O)c(F)c3)c(C3CC3)cc12`, the EC50 was found to be 1.2 nM in assay [1], 2 nM in assay [2], 4 nM in assay [3] and 24 nM in assay [4].

As for `CNC(=O)c1c(-c2ccc(F)cc2)oc2cc(-n3nccc3-c3ccc(B(O)O)c(F)c3)c(C3CC3)cc12`, the EC50 in assay [1] is 2.3 nM; in assay [2], 4 nM; in assay [3] it was 7.9 nM; in assay [4], 20 nM.

As for `CNC(=O)c1c(-c2ccc(F)cc2)oc2cc(-c3ncoc3-c3ccc(B(O)O)c(F)c3)c(C3CC3)cc12`, the concentration giving a half-maximal response (EC50) is 3.4 nM in assay [1], 4 nM in assay [2], 6.3 nM in assay [3] and 30 nM in assay [4].

As for `CNC(=O)c1c(-c2ccc(F)cc2)oc2cc(N3C(=O)OCCC3c3ccc(B(O)O)cc3)c(C3CC3)cc12` (centres undefined), the EC50 in assay [1] was determined as 56 nM; in assay [2], 50 nM; in assay [3] it was 400 nM; in assay [4], 310 nM.

For `CNC(=O)c1c(-c2ccc(F)cc2)oc2cc(N3C(=O)OC[C@@H]3c3cccc(F)c3)c(C3CC3)cc12`, the half-maximal effective concentration (EC50) in assay [1] was 290 nM; in assay [2], 1600 nM; in assay [3], above 5000 nM; in assay [4], above 5000 nM.

Take `CNC(=O)c1c(-c2ccc(F)cc2)oc2cc(-n3ncnc3-c3ccc(B(O)O)c(F)c3)c(C3CC3)cc12`: the EC50 stood at 1.1 nM in assay [1], 2 nM in assay [2], 6.3 nM in assay [3] and 46 nM in assay [4].

In the case of `CNC(=O)c1c(-c2ccc(F)cc2)oc2cc(-n3nnnc3-c3ccc(B(O)O)c(Cl)c3)c(C3CC3)cc12`, the EC50 in assay [1] came out at 3.8 nM; in assay [2] it was 5 nM; in assay [3], 40 nM; in assay [4], 660 nM.

Turning to `CNC(=O)c1c(-c2ccc(F)cc2)oc2cc(N(c3cccc(B(O)O)c3)S(C)(=O)=O)c(C3CC3)cc12`, the EC50 in assay [1] turned out to be 2.2 nM; in assay [2], 6.3 nM; in assay [3], 63 nM; in assay [4] it was 1900 nM.

Regarding `CNC(=O)c1c(-c2ccc(F)cc2)oc2cc(N(c3ccc(B(O)O)c(F)c3)S(C)(=O)=O)c(C3CC3)cc12`, the EC50 in assay [1] was 1 nM; in assay [2] it was 2 nM; in assay [3], 3.2 nM; in assay [4], 39 nM.

`CNC(=O)c1c(-c2ccc(F)cc2)oc2cc(N(Cc3ccc(B(O)O)cc3C(F)(F)F)S(C)(=O)=O)c(C3CC3)cc12`: the concentration for a half-maximal effect (EC50) in assay [2] was 5 nM; in assay [3] it was 19 nM.

Regarding `CNC(=O)c1c(-c2ccc(F)cc2)oc2cc(N(C3CCCc4cc(B(O)O)ccc43)S(C)(=O)=O)c(C3CC3)cc12` (centres undefined), the EC50 in assay [1] was 28 nM; in assay [2], 100 nM; in assay [3], 250 nM; in assay [4], above 5000 nM.

Consider `CNC(=O)c1c(-c2ccc(F)cc2)oc2cc(N(C3CCc4c(B(O)O)cccc43)S(C)(=O)=O)c(C3CC3)cc12` (centres undefined), for which the 50% effective concentration (EC50) worked out at 11 nM in assay [1], 40 nM in assay [2], 320 nM in assay [3] and 1200 nM in assay [4].

Consider `CNC(=O)c1c(-c2ccc(F)cc2)oc2cc(N3C(=O)CCC3c3ccc(B(O)O)cc3)c(C3CC3)cc12` (centres undefined), for which the EC50 in assay [2] turned out to be 63 nM; in assay [3] it was 790 nM.

With `CNC(=O)c1c(-c2ccc(F)cc2)oc2cc(N3C(=O)OCC3c3cccc(B(O)O)c3)c(C3CC3)cc12` (centres undefined), the values for the EC50 in assay [2] and in assay [3] were 100 nM and 1600 nM, respectively.

With `CNC(=O)c1c(-c2ccc(F)cc2)oc2cc(N3C(=O)OC[C@H]3c3ccc(B(O)O)c(F)c3)c(C3CC3)cc12`, the EC50 is 140 nM in assay [1], 200 nM in assay [2], 1600 nM in assay [3] and above 5000 nM in assay [4].

For the compound `CNC(=O)c1c(-c2ccc(F)cc2)oc2cc(-n3ccnc3-c3ccc(B(O)O)c(F)c3)c(C3CC3)cc12`, the half-maximal effective concentration (EC50) was found to be 18 nM in assay [1], 50 nM in assay [2], 400 nM in assay [3] and 2000 nM in assay [4].

Consider `CNC(=O)c1c(-c2ccc(F)cc2)oc2cc(-n3nc(C)nc3-c3ccc(B(O)O)c(F)c3)c(C3CC3)cc12`, for which the half-maximal effective concentration (EC50) was 6 nM in assay [1], 13 nM in assay [2], 400 nM in assay [3] and 630 nM in assay [4].

Turning to `CNC(=O)c1c(-c2ccc(F)cc2)oc2cc(N3C(=O)NCC3c3ccc(B(O)O)cc3)c(C3CC3)cc12` (centres undefined), the EC50 in assay [2] was 250 nM; in assay [3], 3200 nM.

For the compound `CNC(=O)c1c(-c2ccc(F)cc2)oc2cc(N(c3ccc(B(O)O)c(Cl)c3)S(C)(=O)=O)c(C3CC3)cc12`, the EC50 in assay [1] came out at 1.2 nM; in assay [2] it was 2.5 nM; in assay [3], 4 nM; in assay [4], 11 nM.

Regarding `CNC(=O)c1c(-c2ccc(F)cc2)oc2cc(N(C3CCc4cc(B(O)O)ccc43)S(C)(=O)=O)c(C3CC3)cc12` (centres undefined), the EC50 in assay [1] is 9.2 nM; in assay [2], 50 nM; in assay [3] it was 500 nM; in assay [4], 4400 nM.

As to `CNC(=O)c1c(-c2ccc(F)cc2)oc2cc(N(C(C)c3ccc4c(c3)COB4O)S(C)(=O)=O)c(C3CC3)cc12` (centres undefined), the EC50 was 25 nM in assay [2] and 830 nM in assay [3].
